Reference: PMC11562385 (RSC Chemical Biology, 2024)
Where two headings read alike, the source gives them in different places. Square brackets hold non-standard residues; d marks the D form. Peptide text beside a SMILES is read from it. * marks the point of attachment. Methacryloyl = C=C(C)C(=O)*; Dab = NCC[C@H](N)C(=O)O; Dap = NC[C@H](N)C(=O)O; Acryloyl = C=CC(=O)*

What was measured:
[1] = molecular target: T1, PD1:PDL1 interaction (Homo sapiens, UniProt Q15116); assay: PD1/PDL1 immunoblocking ELISA (BPS Bioscience kit cat # 72005); assay type: binding
T1 construct: purchased BPS Bioscience 72005
T1 sequence (Q15116 25-167 limits assumed): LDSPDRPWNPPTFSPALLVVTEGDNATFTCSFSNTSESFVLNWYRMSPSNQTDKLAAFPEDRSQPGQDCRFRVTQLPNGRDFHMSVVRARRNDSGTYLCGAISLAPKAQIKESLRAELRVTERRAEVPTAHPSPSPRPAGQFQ
Method: Original loops with Phe/Trp and their Gly-derived analogs. Experimental EC50 values from inhibitory dose–response curves. Error bars indicate the mean ± SD, (n = 3). […]
SDS -Pages, buffers, and stain were purchased from Fisher
8. Immunoblocking ELISA Assay
Peptide inhibitor stock solutions were prepared in the concentration range of approximately 1-5 mM in DMSO. […]
plate was then washed and blocked with blocking buffer for 1 h at room temperature. Inhibitor solutions (ranging from 0.01 to 100 μM) and a blank solution (DMSO/PBS buffer) were added to designated wells. To initiate the […]
inhibitor solutions. After a 2 h incubation at room temperature, the plate was washed and blocked again for 10 min. Streptavidin-HRP (diluted at 1 : 1000) was added and incubated for 1 h at room temperature with gentle shaking. The plate was washed and blocked once more for 10 min. ELISA ECL substrate was added, and the resulting chemoluminescence was immediately measured in a luminometer (FLUOstar OPTIMA, BMG Labtech).
The luminescence value of the blank was subtracted from all readings according to the manufacturer's

[2] = Variable-temperature CD melting curves (CD-melts at 228±2 nm and 202±2 nm), individual and global two-state fits; assay type: physicochemical
Method: Recently, our laboratory brought forward a novel synthetic technology for the synthesis of acyclic β-hairpins with long loops. […] To compare hairpins’ stability, both regular (R) and bulged (B) scaffolds were crafted around a flexible 10-residue model loop (G4K2G4) and analyzed by CD (circular dichroism) spectroscopy (Fig. 2(A), see ESI, ^† Table S5). The […] structure of these model scaffolds 1avs.2a in solution were recorded in the far-UV CD spectra. […] The CD-exciton intensity was therefore used as a global probe to determine the %-folding of ADAPTins and to obtain melting curves corresponding to the hairpin fraying mechanism upon a gradual increase of temperature (0 to 95 °C).[68] […] In addition, NMR (nuclear magnetic resonance) chemical shifts were measured to determine variations in backbone […] structures (Fig. 2(B)). Secondary chemical shift deviations (CSDs) were calculated against random coil values[69] for both ADAPTin scaffolds 1vs.2 to verify that the hairpins were folded and if any variation of conformational rigidity exist within the loops. […]
Mass Spectrometer coupled to a Vanquish™ Neo UHPLC System (Thermo Scientific™). Peptide solutions for circular dichroism (CD) were prepared within a concentration range of 15-120 µM in a phosphate buffer (15 mM, […]
measured accurately using a JASCO V-670 spectrophotometer relied on the combined molar absorptivity of Trp (ε280 = 5580 M-1 .cm-1 per Trp) and Tyr (ε280 = 1280 M-1 .cm-1 per Tyr) to determine each sample's concentration.
CD spectra were recorded using a JASCO J-810 Spectropolarimeter equipped with a temperature controller module JASCO PFD-425S. Raw CD melting curves were processed in SpectraGryph, and fitting was performed in OriginPro 9.0 (Originlab Corporation, U.S.A.). NMR samples were prepared by reconstituting freeze -dried peptides (~ 1-5 mg) in mixture of water and DMSO -d6 (90:10 v/v) using 2,2-dimethyl-2-silapentane-5-sulfonate (DSS) as internal standard for chemical shifts (0 ppm), and spectra were recorded at 291 K (18 °C) unless otherwise stated. Chemical shifts ( δ) are reported in ppm. Samples for NMR experiments were prepared in a range of 3-10 mM of peptide in solution unless otherwise noted.

[3] = ELISA, mean of three independent experiments, read-out: EC50 Value
[4] = xlsx sheet of the peptide, individual fit of CD-melt

Molecule: C=CC(=O)NCC[C@H](NC(=O)[C@H](CC(=O)O)NC(=O)[C@H](Cc1ccccc1)NC(=O)[C@H](CCCNC(=N)N)NC(=O)[C@H](Cc1ccc(O)cc1)NC(=O)[C@H](CC(=O)O)NC(=O)[C@H](CCCNC(=N)N)NC(=O)[C@H](CCCNC(=N)N)NC(=O)[C@H](C)NC(=O)[C@@H](NC(=O)[C@H](Cc1c[nH]c2ccccc12)NC(=O)[C@@H](N)CCCNC(=N)N)C(C)C)C(=O)NCC(=O)N[C@@H](Cc1ccccc1)C(=O)N[C@@H](CC(=O)O)C(=O)N[C@@H](Cc1ccc(O)cc1)C(=O)N[C@@H](Cc1c[nH]c2ccccc12)C(=O)N[C@H](C(=O)N[C@@H](Cc1c[nH]c2ccccc12)C(=O)N[C@@H](CCC(=O)O)C(=O)O)C(C)C [2ca] (H-RWVARRDYRFD[Dab](Acryloyl)GFDYWVWE-OH)
- EC50 [1, 3]: 5220 nM

Molecule: C=CC(=O)NC[C@H](NC(=O)[C@H](CC(=O)O)NC(=O)[C@H](Cc1ccccc1)NC(=O)[C@H](CCCNC(=N)N)NC(=O)[C@H](Cc1ccc(O)cc1)NC(=O)[C@H](CC(=O)O)NC(=O)[C@H](CCCNC(=N)N)NC(=O)[C@H](CCCNC(=N)N)NC(=O)[C@H](C)NC(=O)[C@@H](NC(=O)[C@H](Cc1c[nH]c2ccccc12)NC(=O)[C@@H](N)CCCNC(=N)N)C(C)C)C(=O)NCC(=O)N[C@@H](Cc1ccccc1)C(=O)N[C@@H](CC(=O)O)C(=O)N[C@@H](Cc1ccc(O)cc1)C(=O)N[C@@H](Cc1c[nH]c2ccccc12)C(=O)N[C@H](C(=O)N[C@@H](Cc1c[nH]c2ccccc12)C(=O)N[C@@H](CCC(=O)O)C(=O)O)C(C)C [2cb] (H-RWVARRDYRFD[Dap](Acryloyl)GFDYWVWE-OH)
- EC50 [1, 3]: 3980 nM

Molecule: C=C(C)C(=O)NCC[C@H](NC(=O)[C@H](CC(=O)O)NC(=O)[C@H](Cc1ccccc1)NC(=O)[C@H](CCCNC(=N)N)NC(=O)[C@H](Cc1ccc(O)cc1)NC(=O)[C@H](CC(=O)O)NC(=O)[C@H](CCCNC(=N)N)NC(=O)[C@H](CCCNC(=N)N)NC(=O)[C@H](C)NC(=O)[C@@H](NC(=O)[C@H](Cc1c[nH]c2ccccc12)NC(=O)[C@@H](N)CCCNC(=N)N)C(C)C)C(=O)NCC(=O)N[C@@H](Cc1ccccc1)C(=O)N[C@@H](CC(=O)O)C(=O)N[C@@H](Cc1ccc(O)cc1)C(=O)N[C@@H](Cc1c[nH]c2ccccc12)C(=O)N[C@H](C(=O)N[C@@H](Cc1c[nH]c2ccccc12)C(=O)N[C@@H](CCC(=O)O)C(=O)O)C(C)C [2cd] (H-RWVARRDYRFD[Dab](Methacryloyl)GFDYWVWE-OH)
- EC50 [1, 3]: 9870 nM

Molecule: CSCC[C@H](NC(=O)[C@H](CC(=O)O)NC(=O)CNC(=O)[C@H](CCCNC(=N)N)NC(=O)[C@H](Cc1ccc(O)cc1)NC(=O)[C@H](CC(=O)O)NC(=O)[C@H](CCCNC(=N)N)NC(=O)[C@H](CCCNC(=N)N)NC(=O)[C@H](C)NC(=O)[C@@H](NC(=O)[C@H](Cc1c[nH]c2ccccc12)NC(=O)[C@@H](N)CCCNC(=N)N)C(C)C)C(=O)NCC(=O)N[C@@H](Cc1ccccc1)C(=O)N[C@@H](CC(=O)O)C(=O)N[C@@H](Cc1ccc(O)cc1)C(=O)N[C@@H](Cc1c[nH]c2ccccc12)C(=O)N[C@@H](Cc1cnc[nH]1)C(=O)N[C@@H](Cc1c[nH]c2ccccc12)C(=O)N[C@@H](CCC(=O)O)C(=O)O [2d] (H-RWVARRDYRGDMGFDYWHWE-OH)
- EC50 [1, 3]: 5650 nM
- EC50 ([1]; [PD1•PDL1] blocking EC50, Fig. 3B, cut-off bars of congeneric pairs (Phe/Trp vs Gly), n = 3): > 5000 nM

Molecule: CSCC[C@H](NC(=O)[C@H](CC(=O)O)NC(=O)[C@H](Cc1ccccc1)NC(=O)[C@H](CCCNC(=N)N)NC(=O)[C@H](Cc1ccc(O)cc1)NC(=O)[C@H](CC(=O)O)NC(=O)[C@H](CCCNC(=N)N)NC(=O)[C@H](CCCNC(=N)N)NC(=O)[C@H](C)NC(=O)[C@@H](NC(=O)[C@H](Cc1c[nH]c2ccccc12)NC(=O)[C@@H](N)CCCNC(=N)N)C(C)C)C(=O)NCC(=O)N[C@@H](Cc1ccccc1)C(=O)N[C@@H](CC(=O)O)C(=O)N[C@@H](Cc1ccc(O)cc1)C(=O)N[C@@H](Cc1c[nH]c2ccccc12)C(=O)N[C@@H](Cc1cnc[nH]1)C(=O)N[C@@H](Cc1c[nH]c2ccccc12)C(=O)N[C@@H](CCC(=O)O)C(=O)O [2e] (H-RWVARRDYRFDMGFDYWHWE-OH)
- EC50 [1, 3]: 586 nM

Molecule: CSCC[C@H](NC(=O)[C@H](CC(=O)O)NC(=O)[C@H](Cc1ccccc1)NC(=O)[C@H](CCCNC(=N)N)NC(=O)[C@H](Cc1ccc(O)cc1)NC(=O)[C@H](CC(=O)O)NC(=O)[C@H](CCCNC(=N)N)NC(=O)[C@H](CCCNC(=N)N)NC(=O)[C@H](CCCCN)NC(=O)[C@@H](NC(=O)[C@H](Cc1c[nH]c2ccccc12)NC(=O)[C@@H](N)CCCNC(=N)N)C(C)C)C(=O)NCC(=O)N[C@@H](Cc1ccccc1)C(=O)N[C@@H](CC(=O)O)C(=O)N[C@@H](Cc1ccc(O)cc1)C(=O)N[C@@H](Cc1c[nH]c2ccccc12)C(=O)N[C@H](C(=O)N[C@@H](Cc1c[nH]c2ccccc12)C(=O)N[C@@H](CCC(=O)O)C(=O)O)C(C)C [2g] (H-RWVKRRDYRFDMGFDYWVWE-OH)
- EC50 [1, 3]: 78 nM

Molecule: CSCC[C@H](NC(=O)[C@H](CC(=O)O)NC(=O)CNC(=O)[C@H](CCCNC(=N)N)NC(=O)[C@H](Cc1ccc(O)cc1)NC(=O)[C@H](CC(=O)O)NC(=O)[C@H](CCCNC(=N)N)NC(=O)[C@H](CCCNC(=N)N)NC(=O)[C@@H](NC(=O)[C@@H](NC(=O)[C@H](Cc1c[nH]c2ccccc12)NC(=O)[C@@H](N)CCCNC(=N)N)C(C)C)C(C)C)C(=O)NCC(=O)N[C@@H](Cc1ccccc1)C(=O)N[C@@H](CC(=O)O)C(=O)N[C@@H](Cc1ccc(O)cc1)C(=O)N[C@@H](Cc1c[nH]c2ccccc12)C(=O)N[C@H](C(=O)N[C@@H](Cc1c[nH]c2ccccc12)C(=O)N[C@@H](CCC(=O)O)C(=O)O)C(C)C [2h] (H-RWVVRRDYRGDMGFDYWVWE-OH)
- EC50 [1, 3]: 781 nM

Molecule: CSCC[C@H](NC(=O)[C@H](CC(=O)O)NC(=O)[C@H](Cc1ccccc1)NC(=O)[C@H](CCCNC(=N)N)NC(=O)[C@H](Cc1ccc(O)cc1)NC(=O)[C@H](CC(=O)O)NC(=O)[C@H](CCCNC(=N)N)NC(=O)[C@H](CCCNC(=N)N)NC(=O)[C@@H](NC(=O)[C@@H](NC(=O)[C@H](Cc1c[nH]c2ccccc12)NC(=O)[C@@H](N)CCCNC(=N)N)C(C)C)C(C)C)C(=O)NCC(=O)N[C@@H](Cc1ccccc1)C(=O)N[C@@H](CC(=O)O)C(=O)N[C@@H](Cc1ccc(O)cc1)C(=O)N[C@@H](Cc1c[nH]c2ccccc12)C(=O)N[C@H](C(=O)N[C@@H](Cc1c[nH]c2ccccc12)C(=O)N[C@@H](CCC(=O)O)C(=O)O)C(C)C [2i] (H-RWVVRRDYRFDMGFDYWVWE-OH)
- EC50 [1, 3]: 70 nM

Molecule: CSCC[C@H](NC(=O)[C@H](CC(=O)O)NC(=O)[C@H](Cc1ccccc1)NC(=O)[C@H](CCCNC(=N)N)NC(=O)[C@H](Cc1ccc(O)cc1)NC(=O)[C@H](CC(=O)O)NC(=O)[C@H](CCCNC(=N)N)NC(=O)[C@H](CCCNC(=N)N)NC(=O)[C@H](C)NC(=O)[C@@H](NC(=O)[C@H](Cc1c[nH]c2ccccc12)NC(=O)[C@@H](N)CCCNC(=N)N)C(C)C)C(=O)NCC(=O)N[C@@H](Cc1ccccc1)C(=O)N[C@@H](CC(N)=O)C(=O)N[C@@H](Cc1ccc(O)cc1)C(=O)N[C@@H](Cc1c[nH]c2ccccc12)C(=O)N[C@H](C(=O)N[C@@H](Cc1c[nH]c2ccccc12)C(=O)N[C@@H](CCC(=O)O)C(=O)O)C(C)C [2k] (H-RWVARRDYRFDMGFNYWVWE-OH)
- EC50 [1, 3]: 170 nM

Molecule: RWCAR-RDYRFDMGFD-YWGWE [Native, peptide 'Native', no fold by CD]
- fold by CD signature (in words) ([2]; no hairpin exciton, no fit possible): No fold

Molecule: RWVA-RGGGGKKGGFD-YWVWE [2a, bulged (B) β-hairpin model scaffold]
- ΔGF0 ([2]; CD-melt at 228±2 nm, individual two-state Gibbs-Helmholtz fit (Origin 9.0), 0-95 °C, phosphate buffer 15 mM pH 6.5 ± MeOH): -0.90 ± 0.006 kcal/mol
- Tm ([2]; Table S5, individual fit, 228±2 nm): 44.8 oC
- Hairpin %-fold 291K ([2]; Table S5, individual fit, 291 K): 87 ± 1%
- Hairpin %-fold 310K ([2]; Table S5, individual fit, 310 K): 66 ± 1%
- -TΔSF0 ([2]; as E16): 9.87 ± 0.1 kcal/mol
- ΔCpF0 ([2]; as E16): -372 ± 10 cal.deg-1.mol-1
- ΔHF0 ([2]; as E16): -10.8 ± 0.1 kcal/mol
- melting temperature (TM) upshift vs regular hairpin 1a ([2]; calculated from CD-melts): about 10 °C
- DHm, fitted value from OriginPro [2, 4]: -18.1854 kcal/mol
- Tm, fitted value from OriginPro [2, 4]: 317.92 K
